Results: paper PMC5431086, “The Rational Design of Therapeutic Peptides for Aminopeptidase N using a Substrate-Based Approach” (Scientific Reports, 2017)
Values joined by “and” are separate entries in the source; they are usually repeats but may differ in a detail not shown here. Equal values may be shown once. Starred links: 1 amine or outer side, 2 acyl side, 3 side chain; linkers in the order of their positions; H or OH if unused. Positions of bridges follow the written chain, without caps; N, C: chain ends. Non-standard residues stand in square brackets, D forms with d. Residues, ends and D or L forms follow the SMILES beside them. *: point of attachment. Suc = O=C(CCC(=O)[*:2])[*:1]; Nle = CCCC[C@H](N)C(=O)O; Cbz = O=C(OCc1ccccc1)*; For = O=C*

Molecular target: T1, hAPN (aminopeptidase N) (Homo sapiens, UniProt P15144)
T1 construct: human APN ecdomain (residues 66–967) were expressed and purified as previously described; honeybee-melittin signal peptide (N); His6 (C); made in house; host or cells: insect cells
T1 sequence (P15144 66-967): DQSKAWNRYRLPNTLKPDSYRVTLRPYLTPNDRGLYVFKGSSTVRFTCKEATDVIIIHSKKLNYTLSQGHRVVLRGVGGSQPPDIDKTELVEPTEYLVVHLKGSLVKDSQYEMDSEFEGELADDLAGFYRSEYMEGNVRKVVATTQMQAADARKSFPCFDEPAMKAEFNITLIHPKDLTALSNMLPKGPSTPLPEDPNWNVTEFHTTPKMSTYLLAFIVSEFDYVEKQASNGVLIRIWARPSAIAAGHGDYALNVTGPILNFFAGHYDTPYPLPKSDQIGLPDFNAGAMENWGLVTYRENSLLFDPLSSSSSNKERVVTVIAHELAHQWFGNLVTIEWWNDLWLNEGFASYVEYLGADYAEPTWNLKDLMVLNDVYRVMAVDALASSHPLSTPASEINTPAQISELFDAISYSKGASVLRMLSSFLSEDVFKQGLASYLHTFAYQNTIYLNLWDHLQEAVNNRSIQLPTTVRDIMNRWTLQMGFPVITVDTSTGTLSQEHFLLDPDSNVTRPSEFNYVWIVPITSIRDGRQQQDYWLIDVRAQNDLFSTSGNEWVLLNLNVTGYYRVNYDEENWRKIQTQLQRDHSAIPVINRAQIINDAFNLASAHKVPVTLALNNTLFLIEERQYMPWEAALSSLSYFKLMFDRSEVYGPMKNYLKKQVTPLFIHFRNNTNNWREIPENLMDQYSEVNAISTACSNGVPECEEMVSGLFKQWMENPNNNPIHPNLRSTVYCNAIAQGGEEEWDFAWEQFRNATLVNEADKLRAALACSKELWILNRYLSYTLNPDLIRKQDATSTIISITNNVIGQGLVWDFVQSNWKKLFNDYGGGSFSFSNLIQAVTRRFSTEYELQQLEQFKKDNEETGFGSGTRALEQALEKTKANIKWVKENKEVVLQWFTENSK
Assay: Inhibition of cleavage of fluorogenic alanine substrate (H-Ala-AMC) by APN
Assay type: biochemical
Settings: 0.1 μM APN, 100 μM H-Ala-AMC; for Ki: APN, Ki from IC50 by Cheng-Prusoff equation; for IC50: pH 7.2, 37 °C, triplicate
Procedure: Five-residue long peptides containing P1–P4′ residues from primary cleavages in the library were synthesized and tested for their ability to prevent the cleavage of a fluorogenic alanine substrate by hAPN.
The peptides used in this study were custom synthesized by AAPPTEC of Louisville, KY using traditional Fmoc solid-phase peptide synthesis. All of the peptides were purified and characterized by AAPPTEC. […] Inhibition assays were performed in triplicate in a 100 mM Tris pH 7.2, Brij 35 0.0002% w/v assay buffer at 37 °C with 0.1 μM APN and 100 μM H-Ala-AMC (fluorophore). Values were recorded by Infinite pro plate reader every 2 minutes for 30 minutes with laser parameters set for excitation at 355 nm and emission at 460 nm.

Row | Ki | IC50 | Compound
1 | > 500 µM | – | CC(=O)N[C@@H](Cc1c[nH]cn1)C(=O)N[C@@H](CO)C(=O)N1CCC[C@H]1C(=O)N[C@@H](Cc1c[nH]c2ccccc12)C(=O)O [Ac-HSPW] (Ac-HSPW-OH; C-terminus assumed)
2 | > 500 µM | – | O=C(N[C@@H](Cc1c[nH]cn1)C(=O)N[C@@H](CO)C(=O)N1CCC[C@H]1C(=O)N[C@@H](Cc1c[nH]c2ccccc12)C(=O)O)OCc1ccccc1 [Cbz-HSPW] (Cbz-HSPW-OH; C-terminus assumed)
3 | > 500 µM | – | CC(C)C[C@H](NC(=O)OCc1ccccc1)C(=O)N[C@@H](Cc1c[nH]cn1)C(=O)N[C@@H](CO)C(=O)N1CCC[C@H]1C(=O)N[C@@H](Cc1c[nH]c2ccccc12)C(=O)O [Cbz-LHSPW] (Cbz-LHSPW-OH)
4 | – | > 500 µM | C[C@H](NC(=O)[C@@H](N)CC(=O)O)C(=O)N[C@@H](CCCNC(=N)N)C(=O)N[C@@H](CCCCN)C(=O)O [DARK] (H-DARK-OH)
5 | – | > 500 µM | C[C@@H](O)[C@H](NC(=O)[C@H](CO)NC(=O)[C@@H](N)CC(=O)O)C(=O)N[C@@H](Cc1ccccc1)C(=O)O [DSTF] (H-DSTF-OH)
6 | > 500 µM | – | O=CN[C@@H](Cc1c[nH]cn1)C(=O)N[C@@H](CO)C(=O)N1CCC[C@H]1C(=O)N[C@@H](Cc1c[nH]c2ccccc12)C(=O)O [For-HSPW] (For-HSPW-OH; C-terminus assumed)
7 | > 500 µM | – | CC(C)C[C@H](NC=O)C(=O)N[C@@H](Cc1c[nH]cn1)C(=O)N[C@@H](CO)C(=O)N1CCC[C@H]1C(=O)N[C@@H](Cc1c[nH]c2ccccc12)C(=O)O [For-LHSPW] (For-LHSPW-OH)
8 | – | 43 µM and 43.3 µM | N[C@@H](Cc1c[nH]cn1)C(=O)N[C@@H](CO)C(=O)N1CCC[C@H]1C(=O)N[C@@H](Cc1c[nH]c2ccccc12)C(=O)O [HSPW] (H-HSPW-OH; N-terminus and C-terminus assumed)
9 | > 500 µM | – | O=C(O)CCC(=O)N[C@@H](Cc1c[nH]cn1)C(=O)N[C@@H](CO)C(=O)N1CCC[C@H]1C(=O)N[C@@H](Cc1c[nH]c2ccccc12)C(=O)O [Suc-HSPW] (Suc-HSPW-OH; C-terminus assumed)
10 | > 500 µM | – | CC(C)C[C@H](NC(=O)CCC(=O)O)C(=O)N[C@@H](Cc1c[nH]cn1)C(=O)N[C@@H](CO)C(=O)N1CCC[C@H]1C(=O)N[C@@H](Cc1c[nH]c2ccccc12)C(=O)O [Suc-LHSPW] (Suc-LHSPW-OH)
11 | > 500 µM | – | C[C@@H]1NC(=O)[C@H](CC(=O)O)NC(=O)[C@H](C)NC(=O)[C@@H](N)CSSC[C@@H](C(=O)O)NC(=O)[C@H](CCCCN)NC(=O)[C@H](CCCNC(=N)N)NC1=O [cyc-ADARK] (H-CADARKC-OH; disulfide 1-7)
12 | > 500 µM | – | C[C@@H]1NC(=O)[C@@H](N)CSSC[C@@H](C(=O)O)NC(=O)[C@H](Cc2c[nH]c3ccccc23)NC(=O)[C@@H]2CCCN2C(=O)[C@H](CO)NC(=O)[C@H](Cc2c[nH]cn2)NC1=O [cyc-AHSPW, Cys-AHSPW-Cys] (H-CAHSPWC-OH; disulfide 1-7)
13 | > 500 µM | – | CC(C)C[C@@H]1NC(=O)[C@@H](N)CSSC[C@@H](C(=O)O)NC(=O)[C@H](Cc2ccccc2)NC(=O)[C@H]([C@@H](C)O)NC(=O)[C@H](CO)NC(=O)[C@H](CC(=O)O)NC1=O [cyc-LDSTF] (H-CLDSTFC-OH; disulfide 1-7)
14 | 121 ± 21.4 µM | – | CC(C)C[C@@H]1NC(=O)[C@@H](N)CSSC[C@@H](C(=O)O)NC(=O)[C@@H]2CCCN2C(=O)[C@H](CO)NC(=O)[C@H](Cc2c[nH]cn2)NC1=O [cyc-LHSP] (H-CLHSPC-OH; disulfide 1-6)
15 | > 500 µM | – | CC(C)C[C@@H]1NC(=O)[C@@H](N)CSSC[C@@H](C(=O)O)NC(=O)[C@H](CO)NC(=O)[C@H](Cc2c[nH]cn2)NC1=O [cyc-LHS] (H-CLHSC-OH; disulfide 1-5)
16 | > 500 µM | – | N[C@H]1CSSC[C@@H](C(=O)O)NC(=O)[C@H](Cc2c[nH]c3ccccc23)NC(=O)[C@@H]2CCCN2C(=O)[C@H](CO)NC(=O)[C@H](Cc2c[nH]cn2)NC(=O)[C@@H]2CCCN2C1=O [cyc-PHSPW, Cys-PHSPW-Cys] (H-CPHSPWC-OH; disulfide 1-7)
17 | – | > 500 µM | CCCC[C@H](N)C(=O)N[C@@H](CC(=O)O)C(=O)N[C@@H](CCC(N)=O)C(=O)N[C@H](C(=O)N[C@@H](Cc1ccc(O)cc1)C(=O)O)[C@@H](C)CC [nDQIY] (H-[Nle]DQIY-OH)
